Results reported in US11279735B2, “Cyclic peptide antibiotics” (priority 2017, dated 2022).
≈ marks a conversion by molar mass, not a printed value. *1 amine or outer side, *2 acyl side, *3 side chain or, on linkers, in order; H or OH if unused. Where a SMILES comes first, the peptide text is derived from it. [ ]: non-standard residue; d: D form. The star is where a group is joined. X13 = C[C@H](CO[C@H](CC1CC2(CCC2)C1)[C@@H](C)C(=O)[*:2])N[*:1]; X19 = CCCC[C@@H](OC[C@@H](C)N[*:1])[C@@H](CC1CC1)C(=O)[*:2]; X2 = CCCCCC[C@@H](OC[C@@H](C)N[*:1])[C@@H](C)C(=O)[*:2]; Cyclobutyl(trans-3-NH2) = N[C@H]1C[C@H](*)C1; Gly(cHept) = N[C@H](C(=O)O)C1CCCCCC1; aThr = C[C@H](O)[C@H](N)C(=O)O; NMeL = CN[C@@H](CC(C)C)C(=O)O; Chg = N[C@H](C(=O)O)C1CCCCC1; NMeNva = CCC[C@H](NC)C(=O)O; Dap = NC[C@H](N)C(=O)O; X11 = OC[C@H](O)C*; X10 = NCCCC*

Tested on: Escherichia coli (E. coli) strain CFT073 ATCC 700928
Format: cell-based
Conditions: ATCC 700928, 22 h
Outline: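 Broth microdilution MIC per CLSI M07-A8 in cation-adjusted Mueller Hinton II broth with 0.002% Tween-80. Ten-point 2-fold series topped at 64, 4, 0.5 or 0.13 μg/mL depending on protocol. Final inoculum OD600 0.0005, incubated 22 h at 35 °C.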

Compound | MIC
CCCCCC[C@H]1OC[C@@H](C)NC(=O)[C@H](COC[C@@H](O)CO)NC(=O)[C@H](CN)NC(=O)[C@H](C2CCCCC2)NC(=O)[C@H](CC(C)C)N(C)C(=O)[C@@H]1C [Example 67, (3R,6S,9S,12S,15S,18R,19R)-9-(Aminomethyl)-12-cyclohexyl-6-(((S)-2,3-dihydroxypropoxy)methyl)-19-hexyl-15-isobutyl-3,16,18-trimethyl-1-oxa-4,7,10,13,16-pentaazacyclononadecane-5,8,11,14,17-pentaone] (cyclo([Chg][Dap]S(X11)[X2][NMeL])) | 8.8 µM (≈ 6.52 µg/mL)
CCCCCCCCCC[C@H]1OC(=O)CNC(=O)[C@H](C)NC(=O)[C@H](CO)NC(=O)[C@H]([C@@H](C)CC)NC(=O)[C@H](CC(C)C)N(C)C(=O)[C@@H]1C [Example 30, (6S,9S,12S,15S,18R,19R)-19-decyl-9-(hydroxymethyl)-15-isobutyl-6,16,18-trimethyl-12-[(1S)-1-methylpropyl]-1-oxa-4,7,10,13,16-pentazacyclononadecane-2,5,8,11,14,17-hexone] | 13 µM (≈ 8.86 µg/mL)
CCCCCC[C@H]1OC(=O)CNC(=O)[C@H](CNC(=O)C2CNC2)NC(=O)[C@H](CN)NC(=O)[C@H](C2CCCCC2)NC(=O)[C@H](CC(C)C)N(C)C(=O)[C@@H]1C [Example 72, N-(((6S,9S,12S,15S,18R,19R)-9-(Aminomethyl)-12-cyclohexyl-19-hexyl-15-isobutyl-16,18-dimethyl-2,5,8,11,14,17-hexaoxo-1-oxa-4,7,10,13,16-pentaazacyclononadecan-6-yl)methyl)azetidine-3-carboxamide] | 12 µM (≈ 8.99 µg/mL)
CC[C@@H](C)[C@@H]1NC(=O)[C@H](CC(C)C)N(C)C(=O)[C@H](C)[C@@H](CCC23CC4CC(CC(C4)C2)C3)OC(=O)CNC(=O)[C@H](CO)NC(=O)[C@H](CN)NC1=O [Example 94, (6S,9S,12S,15S,18R,19R)-19-[2-(1-adamantyl)ethyl]-9-(aminomethyl)-6-(hydroxymethyl)-15-isobutyl-16,18-dimethyl-12-[(1R)-1-methylpropyl]-1-oxa-4,7,10,13,16-pentazacyclononadecane-2,5,8,11,14,17-hexone] | 4.4 µM (≈ 3.16 µg/mL)
CCC[C@H]1C(=O)N[C@@H](C2CCCCCC2)C(=O)N[C@@H](CN)C(=O)N[C@@H](CO[C@H]2C[C@H](N)C2)C(=O)N[C@H](C)CO[C@H](CC2CC3(CCC3)C2)[C@@H](C)C(=O)N1C [Example 164, (3R,6S,9S,12S,15S,18R,19R)-6-(((1r,3S)-3-Aminocyclobutoxy)methyl)-9-(aminomethyl)-12-cycloheptyl-3,16,18-trimethyl-15-propyl-19-(spiro[3.3]heptan-2-ylmethyl)-1-oxa-4,7,10,13,16-pentaazacyclononadecane-5,8,11,14,17-pentaone] (cyclo([Dap]S(Cyclobutyl(trans-3-NH2))[X13][NMeNva][Gly(cHept)])) | 2.2 µM (≈ 1.67 µg/mL)
CCCCCCCCCC[C@H]1OC(=O)CNC(=O)[C@H]([C@H](C)O)NC(=O)[C@H](CN)NC(=O)[C@H](CCCCOC)NC(=O)[C@H](CC(C)C)N(C)C(=O)[C@@H]1C [Example 50, (6S,9S,12S,15S,18R,19R)-9-(aminomethyl)-19-decyl-6-[(1S)-1-hydroxyethyl]-15-isobutyl-12-(4-methoxybutyl)-16,18-dimethyl-1-oxa-4,7,10,13,16-pentazacyclononadecane-2,5,8,11,14,17-hexone] | 25 µM (≈ 18.5 µg/mL)
CCCCCCCCCC[C@H]1OC(=O)CNC(=O)[C@H]([C@H](C)O)NC(=O)[C@H](CN)NC(=O)[C@H]([C@H](C)CC)NC(=O)[C@H](CC(C)C)N(C)C(=O)[C@@H]1C [Example 1, (6S,9S,12S,15S,18R,19R)-9-(aminomethyl)-12-((R)-sec-butyl)-19-decyl-6-((S)-1-hydroxyethyl)-15-isobutyl-16,18-dimethyl-1-oxa-4,7,10,13,16-pentaazacyclononadecane-2,5,8,11,14,17-hexaone] | 3.1 µM (≈ 2.2 µg/mL)
CCCCCCC[C@H]1OC(=O)CNC(=O)[C@H]([C@H](C)O)NC(=O)[C@H](CO)NC(=O)[C@H]([C@H](C)CC)NC(=O)[C@H](CC(C)C)N(C)C(=O)[C@@H]1CC [Example 8, (6S,9S,12S,15S,18R,19R)-12-((R)-sec-Butyl)-18-ethyl-9-heptyl-6-((S)-1-hydroxyethyl)-9-(hydroxymethyl)-15-isobutyl-16-methyl-1-oxa-4,7,10,13,16-pentaazacyclononadecane-2,5,8,11,14,17-hexaone] | 25 µM (≈ 17.1 µg/mL)
CCCCCCCCCC[C@H]1OC(=O)CNC(=O)[C@H]([C@H](C)O)NC(=O)[C@H](CN)NC(=O)[C@H]([C@H](C)CC)NC(=O)[C@H](CC2CCC2)N(C)C(=O)[C@@H]1C [Example 16, (6S,9S,12S,15S,18R,19R)-9-(aminomethyl)-15-(cyclobutylmethyl)-19-decyl-6-[(1S)-1-hydroxyethyl]-16,18-dimethyl-12-[(1R)-1-methylpropyl]-1-oxa-4,7,10,13,16-pentazacyclononadecane-2,5,8,11,14,17-hexone] | 6.3 µM (≈ 4.55 µg/mL)
CCCCCCCCCC[C@H]1OC(=O)CNC(=O)[C@H]([C@H](C)O)NC(=O)[C@H](CN)NC(=O)[C@H]([C@H](C)CC)NC(=O)C(CCC(F)(F)F)N(C)C(=O)[C@@H]1C (single isomer, unassigned) [Example 17, 9-(aminomethyl)-19-decyl-6-(1-hydroxyethyl)-16,18-dimethyl-12-sec-butyl-15-(3,3,3-trifluoropropyl)-1-oxa-4,7,10,13,16-pentazacyclononadecane-2,5,8,11,14,17-hexone] | 25 µM (≈ 18.8 µg/mL)
CCCCCC[C@H]1OC[C@@H](C)NC(=O)[C@H](COCCCCN)NC(=O)[C@H](CN)NC(=O)[C@H](C2CCCCC2)NC(=O)[C@H](CC(C)C)N(C)C(=O)[C@@H]1C [Example 73, (3R,6S,9S,12S,15S,18R,19R)-6-((4-Aminobutoxy)methyl)-9-(aminomethyl)-12-cyclohexyl-19-hexyl-15-isobutyl-3,16,18-trimethyl-1-oxa-4,7,10,13,16-pentaazacyclononadecane-5,8,11,14,17-pentaone] (cyclo([Chg][Dap]S(X10)[X2][NMeL])) | 6.3 µM (≈ 4.65 µg/mL)

The remaining lines, values ahead:

MIC | Compound
8.8 µM (≈ 6.17 µg/mL) | CCCCCC[C@H]1OC(=O)CNC(=O)[C@H]([C@H](C)O)NC(=O)[C@H](CN)NC(=O)[C@H](C2Cc3ccccc3C2)NC(=O)[C@H](CCC)N(C)C(=O)[C@@H]1C [Example 142, (6S,9S,12S,15S,18R,19R)-9-(aminomethyl)-19-hexyl-12-indan-2-yl-16,18-dimethyl-15-propyl-6-[(1S)-1-hydroxyethyl]-1-oxa-4,7,10,13,16-pentazacyclononadecane-2,5,8,11,14,17-hexone]
25 µM (≈ 18.6 µg/mL) | CCCC[C@H]1OC(=O)CNC(=O)[C@H]([C@H](C)O)NC(=O)[C@H](CN)NC(=O)[C@H](C2CCCCC2)NC(=O)[C@H](CC(C)C)N(C)C(=O)[C@@H]1Cc1ccc(C)cc1 [Example 109, (6S,9S,12S,15S,18R,19R)-9-(aminomethyl)-19-butyl-12-cyclohexyl-15-isobutyl-16-methyl-18-(p-tolylmethyl)-6-[(1S)-1-hydroxyethyl]-1-oxa-4,7,10,13,16-pentazacyclononadecane-2,5,8,11,14,17-hexone]
0.66 µM (≈ 0.474 µg/mL) | CCC[C@H]1C(=O)N[C@@H](C2CCCCCC2)C(=O)N[C@@H](CN)C(=O)N[C@@H]([C@H](C)O)C(=O)NCC(=O)O[C@H](CCC2CC3CCC2C3)[C@@H](C)C(=O)N1C (stereo partly drawn) [Example 129, (6S,9S,12S,15S,18R,19R)-9-(aminomethyl)-12-cycloheptyl-16,18-dimethyl-19-(2-norbornan-2-ylethyl)-15-propyl-6-[(1S)-1-hydroxyethyl]-1-oxa-4,7,10,13,16-pentazacyclononadecane-2,5,8,11,14,17-hexone]
3.1 µM (≈ 2.39 µg/mL) | CCCCCC[C@H]1OC(=O)CNC(=O)[C@H]([C@H](C)O)NC(=O)[C@H](CN)NC(=O)[C@H](C2CCCCC2)NC(=O)[C@H](CC(C)C)N(C)C(=O)[C@@H]1Cc1ccccc1C [Example 120, (6S,9S,12S,15S,18R,19R)-9-(aminomethyl)-12-cyclohexyl-19-hexyl-15-isobutyl-16-methyl-18-(o-tolylinethyl)-6-[(1S)-1-hydroxyethyl]-1-oxa-4,7,10,13,16-pentazacyclononadecane-2,5,8,11,14,17-hexone]
6.3 µM (≈ 4.56 µg/mL) | CCCCCC[C@H]1OC[C@@H](C)NC(=O)[C@H](CNCCN)NC(=O)[C@H](CN)NC(=O)[C@H](C2CCCCCC2)NC(=O)[C@H](CC(C)C)N(C)C(=O)[C@@H]1C [Example 161, (3R,6S,9S,12S,15S,18R,19R)-6-[(2-Aminoethylamino)methyl]-9-(aminomethyl)-12-cycloheptyl-19-hexyl-15-isobutyl-3,16,18-trimethyl-1-oxa-4,7,10,13,16-pentazacyclononadecane-5,8,11,14,17-pentone]
3.1 µM (≈ 2.24 µg/mL) | CCCCCC[C@H]1OC(=O)CNC(=O)[C@H](COCCCN)NC(=O)[C@H](CN)NC(=O)[C@H](C2CCCCCC2)NC(=O)[C@H](CCC)N(C)C(=O)[C@@H]1C [Example 133, (6S,9S,12S,15S,18R,19R)-9-(aminomethyl)-6-(3-aminopropoxymethyl)-12-cycloheptyl-19-hexyl-16,18-dimethyl-15-propyl-1-oxa-4,7,10,13,16-pentazacyclononadecane-2,5,8,11,14,17-hexone]
12 µM (≈ 8.84 µg/mL) | CCCCCC[C@H]1OC(=O)CNC(=O)[C@H](CNC(=O)CCN)NC(=O)[C@H](CN)NC(=O)[C@H](C2CCCCC2)NC(=O)[C@H](CC(C)C)N(C)C(=O)[C@@H]1C [Example 145, 3-amino-N-[[(6S,9S,12S,15S,18R,19R)-9-(aminomethyl)-12-cyclohexyl-19-hexyl-15-isobutyl-16,18-dimethyl-2,5,8,11,14,17-hexaoxo-1-oxa-4,7,10,13,16-pentazacyclononadec-6-yl]methyl]propanamide]
12 µM (≈ 8.15 µg/mL) | CCCC[C@H]1OC[C@@H](C)NC(=O)[C@H]([C@H](C)O)NC(=O)[C@H](CN)NC(=O)[C@H](C2CCCCC2)NC(=O)[C@H](CCC)N(C)C(=O)[C@@H]1CC1CC1 [Example 147, (3R,6S,9S,12S,15S,18R,19R)-9-(Aminomethyl)-19-butyl-12-cyclohexyl-18-(cyclopropylmethyl)-6-((S)-1-hydroxyethyl)-3,16-dimethyl-15-propyl-1-oxa-4,7,10,13,16-pentaazacyclononadecane-5,8,11,14,17-pentaone] (cyclo([Chg][Dap][aThr][X19][NMeNva]))
